# Results from PMC5429769, “Rational development of Stafib-2: a selective, nanomolar inhibitor of the transcription factor STAT5b” (Scientific Reports, 2017).
# Entries after “also recorded” stand apart in the source; their conditions may differ.
# What was measured:
# [1] = target: T1, STAT5b SH2 domain (Homo sapiens, UniProt P51692); assay: Fluorescence polarization assay, STAT5b SH2 domain; assay type: binding; settings: for Ki: converted from IC50 using the published equation, n = 3; for Ki / IC50: mean ± s.d.; for IC50: fluorescence polarization, three independent experiments
# T1 sequence (P51692 1-787): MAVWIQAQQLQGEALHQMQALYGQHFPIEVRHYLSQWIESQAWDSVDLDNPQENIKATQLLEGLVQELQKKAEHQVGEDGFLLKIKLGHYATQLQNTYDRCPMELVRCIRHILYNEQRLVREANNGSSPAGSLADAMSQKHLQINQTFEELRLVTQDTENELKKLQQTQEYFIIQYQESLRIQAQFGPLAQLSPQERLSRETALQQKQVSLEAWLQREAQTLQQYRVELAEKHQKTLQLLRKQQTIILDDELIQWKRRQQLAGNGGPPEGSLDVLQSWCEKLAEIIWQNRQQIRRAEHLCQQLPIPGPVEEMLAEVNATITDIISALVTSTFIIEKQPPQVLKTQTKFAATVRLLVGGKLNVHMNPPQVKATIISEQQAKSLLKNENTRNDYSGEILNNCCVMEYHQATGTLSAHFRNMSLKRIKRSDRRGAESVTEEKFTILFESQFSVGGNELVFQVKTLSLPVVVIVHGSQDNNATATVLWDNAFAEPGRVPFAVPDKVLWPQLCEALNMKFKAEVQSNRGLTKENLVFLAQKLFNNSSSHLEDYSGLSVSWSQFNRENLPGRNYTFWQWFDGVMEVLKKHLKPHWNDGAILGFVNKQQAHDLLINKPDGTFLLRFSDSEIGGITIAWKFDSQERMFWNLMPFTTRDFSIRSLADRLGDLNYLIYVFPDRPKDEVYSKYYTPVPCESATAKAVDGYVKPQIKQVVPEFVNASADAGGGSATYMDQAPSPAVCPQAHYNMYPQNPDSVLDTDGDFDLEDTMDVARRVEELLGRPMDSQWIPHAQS
# [2] = target: T2, STAT5a SH2 domain (Homo sapiens, UniProt P42229); assay: Fluorescence polarization assay, STAT5a SH2 domain; assay type: binding; settings: mean ± s.d.; for Ki: converted from IC50 using the published equation, n = 3; for IC50: fluorescence polarization, three independent experiments
# T2 sequence (P42229 1-794): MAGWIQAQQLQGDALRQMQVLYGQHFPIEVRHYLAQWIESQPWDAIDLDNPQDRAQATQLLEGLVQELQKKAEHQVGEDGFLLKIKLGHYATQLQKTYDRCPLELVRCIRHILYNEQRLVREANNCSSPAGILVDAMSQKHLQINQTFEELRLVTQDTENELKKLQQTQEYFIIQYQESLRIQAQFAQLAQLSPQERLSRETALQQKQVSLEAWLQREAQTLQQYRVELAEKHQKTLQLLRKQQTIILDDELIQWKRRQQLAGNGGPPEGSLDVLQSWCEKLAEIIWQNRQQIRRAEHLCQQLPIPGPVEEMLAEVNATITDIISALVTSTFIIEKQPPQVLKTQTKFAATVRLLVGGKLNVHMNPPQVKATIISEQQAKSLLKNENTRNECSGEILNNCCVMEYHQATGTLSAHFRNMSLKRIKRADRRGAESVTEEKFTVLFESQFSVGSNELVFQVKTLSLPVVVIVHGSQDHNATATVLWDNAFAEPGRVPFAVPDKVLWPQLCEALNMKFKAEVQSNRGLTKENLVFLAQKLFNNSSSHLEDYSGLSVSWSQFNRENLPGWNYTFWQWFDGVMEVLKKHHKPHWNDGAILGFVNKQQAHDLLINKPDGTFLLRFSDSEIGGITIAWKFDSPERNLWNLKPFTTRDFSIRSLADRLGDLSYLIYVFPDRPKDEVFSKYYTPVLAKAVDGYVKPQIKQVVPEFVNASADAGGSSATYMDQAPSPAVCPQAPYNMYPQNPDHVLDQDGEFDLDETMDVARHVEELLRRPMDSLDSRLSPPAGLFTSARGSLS
# [3] = target: T3, STAT5b-GFP (Homo sapiens, UniProt P51692); assay: STAT5b Tyr699 phosphorylation in STAT5b-GFP-transfected K562 cells (Western blot); assay type: cell-based; settings: STAT5b-GFP-transfected K562 cells
# T3 sequence (P51692 1-787): T1 sequence (P51692 1-787)
# [4] = system: STAT5a-GFP; assay: STAT5a Tyr694 phosphorylation in STAT5a-GFP-transfected K562 cells (Western blot); assay type: cell-based, human; settings: 4 h, result in words
# [5] = system: endogenous STAT5; assay: Tyrosine phosphorylation of endogenous total STAT5 in STAT5a/b-GFP-transfected K562 cells; assay type: cell-based, human; settings: result in words
# [6] = system: K562 cells; assay: Apoptosis assay (Annexin V / 7-AAD flow cytometry), K562 cells; assay type: cell-based, human; settings: untransfected K562 cells, 48 h, result in words
# [7] = system: MDA-MB-231 cells; assay: Apoptosis assay (Annexin V / 7-AAD flow cytometry), MDA-MB-231 cells; assay type: cell-based; settings: MDA-MB-231 cells (STAT5-independent), 48 h, result in words
# [8] = system: STAT5b-GFP; assay: STAT5b Tyr699 phosphorylation in STAT5b-GFP-transfected K562 cells (Western blot); assay type: cell-based, human; settings: STAT5b-GFP-transfected K562 cells, 4 h, result in words
Ki [1] [µM],IC50 [1] [µM],Ki [2] [µM],IC50 [2] [µM],SMILES,inhibition of STAT5a phosphorylation [4],other results
0.093 ± 0.003,0.19 ± 0.01,2.9 ± 0.1,5.8 ± 0.3,O=C(COc1ccc2cc(C(=O)Nc3ccc(Oc4ccccc4)cc3)ccc2c1)NCc1ccc(OP(=O)(O)O)c(OP(=O)(O)O)c1 [compound 3],,fold less active than 2 ([1]; STAT5b Ki relative to 2): 2 fold
0.11 ± 0.01,0.28 ± 0.01,4.8 ± 0.1,9.7 ± 0.3,O=C(COc1ccc(C(=O)Nc2ccccc2)cc1)NCc1ccc(OP(=O)(O)O)c(OP(=O)(O)O)c1 [compound 5],,
,,,,O=C(COc1ccc(C(=O)Nc2ccc(Oc3ccccc3)cc2)cc1)NCc1ccc(O)c(O)c1 [compound 7],,STAT5b inhibition ([1]; at 80 µM): lack of activity; also recorded: no inhibition at 80 µM
,,,,"CC(C)(C)C(=O)OCOP(=O)(OCOC(=O)C(C)(C)C)Oc1ccc(CNC(=O)COc2ccc(C(=O)Nc3ccc(Oc4ccccc4)cc3)cc2)cc1OP(=O)(OCOC(=O)C(C)(C)C)OCOC(=O)C(C)(C)C [compound 8, ((((4-((2-(4-((4-Phenoxyphenyl)carbamoyl)phenoxy)acetamido)methyl)-1,2-phenylene)bis(oxy))bis(oxo-l5-phosphanetriyl))tetrakis(oxy))tetrakis(methylene) tetrakis(2,2-dimethylpropanoate)]",not significantly reduced; also recorded: not inhibited,"fold more active against STAT5b phosphorylation than the pivaloyloxymethylesters of 2 and of Capstafin [3]: 2.5 fold; inhibition of STAT5b phosphorylation ([3]; 4 h, result in words): Dose-dependent inhibition; inhibition of STAT5a phosphorylation ([4]; listed as Pomstafib-2): without significantly affecting; inhibition of phosphorylation of endogenous STAT5 [5]: inhibited; apoptotic rate [6]: dose-dependent increase; also recorded: increased; apoptotic rate [7]: does not increase; also recorded: not increased"
,,,,"CC(C)(C)C(=O)OCOP(=O)(Cc1ccccc1CP(=O)(OCOC(=O)C(C)(C)C)OCOC(=O)C(C)(C)C)OCOC(=O)C(C)(C)C [compound 9, reference compound]",lack of inhibition,inhibition of STAT5b phosphorylation [8]: lack of inhibition
